In US5162330A, “Dynemicin C antibiotic, its triacetyl derivative and pharmaceutical composition containing same” (Bristol-Myers Squibb Co., priority 1990, dated 1992):
≈ marks a conversion by molar mass, not a printed value. Like-named read-outs stand apart in the source and are kept apart here.

Tests used:
[1] = tested on: E. cloacae IPM-12; assay: In vitro antibacterial MIC; assay type: cell-based; conditions: Enterobacter cloacae
Method: (§1) The minimum inhibitory concentration (MIC) was determined by a two-fold serial tube dilution method using nutrient agar (pH7, Difco containing 10^5 cfu/ml).

[2] = tested on: E. coli 255; assay: In vitro antibacterial MIC; assay type: cell-based; conditions: pH 7
Method: as §1

[3] = tested on: E. coli Juhl A15119; assay: In vitro antibacterial MIC; assay type: cell-based; conditions: Escherichia coli
Method: as §1

[4] = tested on: E. faecalis A9808; assay: In vitro antibacterial MIC; assay type: cell-based; conditions: Enterococcus faecalis, pH 7
Method: as §1

[5] = tested on: E. faecium A24817; assay: In vitro antibacterial MIC; assay type: cell-based; conditions: Enterococcus faecium, pH 7, nutrient agar pH7, 32° C., 18 hours
Method: as §1

[6] = tested on: K. pneumoniae PCI 602; assay: In vitro antibacterial MIC; assay type: cell-based; conditions: Klebsiella pneumoniae
Method: as §1

[7] = tested on: M. luteus PCI 1001; assay: In vitro antibacterial MIC; assay type: cell-based; conditions: Micrococcus luteus, PCI1001, pH 7, nutrient agar pH7, 32° C., 18 hours
Method: as §1

[8] = tested on: M. morganii I510; assay: In vitro antibacterial MIC; assay type: cell-based; conditions: Morganella morganii, pH 7
Method: as §1

[9] = tested on: P. aeruginosa A20599; assay: In vitro antibacterial MIC; assay type: cell-based; conditions: Pseudomonas aeruginosa, pH 7
Method: as §1

[10] = tested on: P. aeruginosa A9843A; assay: In vitro antibacterial MIC; assay type: cell-based; conditions: Pseudomonas aeruginosa, 18 h, pH 7
Method: as §1

[11] = tested on: P. aeruginosa IPM-8; assay: In vitro antibacterial MIC; assay type: cell-based; conditions: Pseudomonas aeruginosa
Method: as §1

[12] = tested on: P. aeruginosa IPM-9; assay: In vitro antibacterial MIC; assay type: cell-based; conditions: Pseudomonas aeruginosa
Method: as §1

[13] = tested on: P. aeruginosa KKA19; assay: In vitro antibacterial MIC; assay type: cell-based; conditions: Pseudomonas aeruginosa, pH 7, nutrient agar pH7, 32° C., 18 hours
Method: as §1

[14] = tested on: P. cepecia A21213; assay: In vitro antibacterial MIC; assay type: cell-based; conditions: 18 h, pH 7
Method: as §1

[15] = tested on: P. cepecia No. 651; assay: In vitro antibacterial MIC; assay type: cell-based; conditions: 18 h, pH 7
Method: as §1

[16] = tested on: P. mirabilis IFO 3849; assay: In vitro antibacterial MIC; assay type: cell-based; conditions: Proteus mirabilis
Method: as §1

[17] = tested on: P. rettgeri IPM-14; assay: In vitro antibacterial MIC; assay type: cell-based; conditions: Providencia rettgeri
Method: as §1

[18] = tested on: P. vulgaris IPM-13; assay: In vitro antibacterial MIC; assay type: cell-based; conditions: Proteus vulgaris
Method: as §1

[19] = tested on: S. aureus A15036 (MRSA); assay: In vitro antibacterial MIC; assay type: cell-based; conditions: Staphylococcus aureus, 18 h, pH 7
Method: as §1

[20] = tested on: S. aureus IPM-24 (MRSA); assay: In vitro antibacterial MIC; assay type: cell-based; conditions: Staphylococcus aureus, 18 h, pH 7
Method: as §1

[21] = tested on: S. aureus smith; assay: In vitro antibacterial MIC; assay type: cell-based; conditions: Staphylococcus aureus, pH 7
Method: as §1

[22] = tested on: S. epidermidis 11-1230; assay: In vitro antibacterial MIC; assay type: cell-based
Method: as §1

[23] = tested on: S. marcescens IPM-15; assay: In vitro antibacterial MIC; assay type: cell-based; conditions: Serratia marcescens
Method: as §1

[24] = tested on: S. marcescens IPM-16; assay: In vitro antibacterial MIC; assay type: cell-based; conditions: Serratia marcescens, IPM16, 18 h, pH 7
Method: as §1

[25] = tested on: X. maltophilia GN12873; assay: In vitro antibacterial MIC; assay type: cell-based; conditions: Stenotrophomonas maltophilia, pH 7, nutrient agar pH7, 32° C., 18 hours
Method: as §1

[26] = tested on: X. maltophilia No. 661; assay: In vitro antibacterial MIC; assay type: cell-based; conditions: Stenotrophomonas maltophilia, pH 7, nutrient agar pH7, 32° C., 18 hours
Method: as §1

[27] = tested on: Candida albicans ATCC 38247; assay: In vitro antifungal MIC; assay type: cell-based
Method: (§2) The antifungal MICs of dynemicin C and its triacetate were determined by an agar dilution method on yeast morphology agar adjusted to pH7.0 with 1/15M phosphate buffer. A 5 μl aliquot of fungal suspension containing 10^6 cells/ml was inoculated onto the surface of the antibiotic-containing agar plates with a multiinoculator.

[28] = tested on: Cryptococcus neoformans D49; assay: In vitro antifungal MIC; assay type: cell-based; conditions: pH 7
Method: as §2

[29] = tested on: C. neoformans IAM4514; assay: In vitro antifungal MIC; assay type: cell-based, Cryptococcus neoformans
Method: as §2

[30] = tested on: B16-F10 (murine melanoma) cells; assay: In vitro cytotoxicity; assay type: cell-based; conditions: Mus musculus, 72 hours, 37° C., neutral red, 540 nm
Method: (§3) Dynemicin C and its triacetate derivative were tested for in vitro cytotoxicity against murine and human tumor cell lines. Dynemicin A and its triacetate derivative were used as reference compounds. B16-F10 (murine melanoma) cells were grown to the logarithmic phase in enriched Eagle minimum essential medium (MEM) supplemented with fetal calf serum (FCS, 10%) and kanamycin (60 mcg/ml) and HCT-116 (human colon carcinoma) cells in Maccoy's 5A medium supplemented with FCS (10%), penicillin (100 μ/ml) and streptomycin (100 mcg/ml), and were harvested and inoculated into wells of the 96- or 24-well tissue culture plate with test materials at concentrations of 1.5×10^4, 1.3×10^4, 1.3×10^4, 2.5×10^4 and 3.0×10^4 cells/ml., respectively. They were incubated at 37° C. in a humidified atmosphere of 5% CO2 and 95% air for 72 hours. The cytotoxic activities were determined colorimetrically at 540 nm after staining viable cells with 0.006% neutral red solution.

[31] = tested on: HCT-116 (human colon carcinoma) cells; assay: In vitro cytotoxicity; assay type: cell-based; conditions: 72 hours, 37° C., neutral red, 540 nm
Method: as §3

[32] = Cryptococcus neoformans, D49, 40 h
[33] = Cryptococcus neoformans, IAM4514, 40 h, pH 7
[34] = ATCC38247, pH 7, Candida albicans ATCC 38247, amphotericin resistant strain, yeast morphology agar pH7.0, 28° C., 40 hours, read-out: MIC

COC1=C(C(=O)O)C(C)C23OC24c2cc(O)c5c(c2NC3C#CC=CC#CC14)C(=O)c1c(O)ccc(O)c1C5=O (stereo not shown) [Dynemicin A, reference compound]
MIC ([1]; IPM12, 18 h, pH 7): 1.6 ng/mL (≈ 2.98 nM)
MIC ([2]; Escherichia coli, 255, 18 h): 3.2 ng/mL (≈ 5.95 nM)
MIC ([3]; JUHLA15119, 18 h, pH 7): 3.2 ng/mL (≈ 5.95 nM)
MIC ([4]; A9808, 18 h): < 0.025 ng/mL
MIC [5]: < 0.025 ng/mL
MIC ([6]; PCI602, 18 h, pH 7): 3.2 ng/mL (≈ 5.95 nM)
MIC [7]: < 0.025 ng/mL
MIC ([8]; I510, 18 h): 0.8 ng/mL (≈ 1.49 nM)
MIC ([9]; A20599, 18 h): 3.2 ng/mL (≈ 5.95 nM)
MIC [10]: 1.6 ng/mL (≈ 2.98 nM)
MIC ([11]; IPM8, 18 h, pH 7): 3.2 ng/mL (≈ 5.95 nM)
MIC ([12]; IPM9, 18 h, pH 7): 6.3 ng/mL (≈ 11.7 nM)
MIC [13]: 3.2 ng/mL (≈ 5.95 nM)
MIC [14]: 0.8 ng/mL (≈ 1.49 nM)
MIC [15]: 0.8 ng/mL (≈ 1.49 nM)
MIC ([16]; IFO3849, 18 h, pH 7): 1.6 ng/mL (≈ 2.98 nM)
MIC ([17]; IPM14, 18 h, pH 7): 0.8 ng/mL (≈ 1.49 nM)
MIC ([18]; IPM13, 18 h, pH 7): 0.8 ng/mL (≈ 1.49 nM)
MIC [19]: < 0.025 ng/mL
MIC [20]: < 0.025 ng/mL
MIC ([21]; 18 h): < 0.025 ng/mL
MIC ([22]; Staphylococcus epidermidis, 111230, 18 h, pH 7): < 0.025 ng/mL
MIC ([23]; IPM15, 18 h, pH 7): 3.2 ng/mL (≈ 5.95 nM)
MIC [24]: 3.2 ng/mL (≈ 5.95 nM)
MIC [25]: 1.6 ng/mL (≈ 2.98 nM)
MIC [26]: 0.8 ng/mL (≈ 1.49 nM)
MIC ([27]; Candida albicans, ATCC38247, 40 h, pH 7): < 3.1 ng/mL
MIC [28, 32]: 200 ng/mL (≈ 372 nM)
MIC [29, 33]: 200 ng/mL (≈ 372 nM)
IC50 [30]: 5.2 ng/mL (≈ 9.67 nM)
IC50 [31]: 3.2 ng/mL (≈ 5.95 nM)

COC1=C(C(=O)O)C(C)C23OC24c2cc(OC(C)=O)c5c(c2NC3C#CC=CC#CC14)C(=O)c1c(OC(C)=O)ccc(OC(C)=O)c1C5=O (stereo not shown) [Dynemicin A acetate, reference compound]
IC50 [30]: 0.7 ng/mL

CC(=O)N1CCN(c2ccc(OCC3COC(Cn4ccnc4)(c4ccc(Cl)cc4Cl)O3)cc2)CC1 (stereo not shown) [Ketoconazole, reference compound]
MIC [27, 34]: 6300 ng/mL (≈ 11900 nM)
MIC ([28]; Cryptococcus neoformans D49, yeast morphology agar pH7.0, 28° C., 40 hours, read-out: MIC): 100 ng/mL (≈ 188 nM)
MIC ([29]; IAM4514, pH 7, Cryptococcus neoformans IAM 4514, yeast morphology agar pH7.0, 28° C., 40 hours, read-out: MIC): 100 ng/mL (≈ 188 nM)

C[C@@H]1[C@H](O)[C@@H](C)/C=C/C=C/C=C/C=C/C=C/C=C/C=C/[C@H](O[C@@H]2O[C@H](C)[C@@H](O)[C@H](N)[C@@H]2O)C[C@@H]2O[C@](O)(C[C@@H](O)C[C@@H](O)[C@H](O)CC[C@@H](O)C[C@@H](O)CC(=O)O[C@H]1C)C[C@H](O)[C@H]2C(=O)O [Amphotericin B, reference compound]
MIC [27, 34]: 50000 ng/mL (≈ 54100 nM)
MIC [28, 32]: 200 ng/mL (≈ 216 nM)
MIC [29, 33]: 400 ng/mL (≈ 433 nM)

NCC[C@H](O)C(=O)N[C@@H]1C[C@H](N)[C@@H](O[C@H]2O[C@H](CN)[C@@H](O)[C@H](O)[C@H]2O)[C@H](O)[C@H]1O[C@H]1O[C@H](CO)[C@@H](O)[C@H](N)[C@H]1O [Amikacin, reference compound]
MIC ([1]; IPM12, pH 7, E. cloacae IPM-12, nutrient agar pH7, 32° C., 18 hours, read-out: MIC): 25000 ng/mL (≈ 42700 nM)
MIC ([2]; Escherichia coli, E. coli 255, nutrient agar pH7, 32° C., 18 hours, read-out: MIC): 6300 ng/mL (≈ 10800 nM)
MIC ([3]; JUHLA15119, pH 7, E. coli Juhl A15119, nutrient agar pH7, 32° C., 18 hours, read-out: MIC): 12500 ng/mL (≈ 21300 nM)
MIC ([4]; E. faecalis A9808, nutrient agar pH7, 32° C., 18 hours, read-out: MIC): 50000 ng/mL (≈ 85400 nM)
MIC [5]: 100000 ng/mL (≈ 171000 nM)
MIC ([6]; PCI602, pH 7, K. pneumoniae PCI 602, nutrient agar pH7, 32° C., 18 hours, read-out: MIC): 1600 ng/mL (≈ 2730 nM)
MIC [7]: 3100 ng/mL (≈ 5290 nM)
MIC ([8]; M. morganii I510, nutrient agar pH7, 32° C., 18 hours, read-out: MIC): 25000 ng/mL (≈ 42700 nM)
MIC ([9]; P. aeruginosa A20599, nutrient agar pH7, 32° C., 18 hours, read-out: MIC): 1600 ng/mL (≈ 2730 nM)
MIC [10]: 3100 ng/mL (≈ 5290 nM)
MIC ([11]; IPM8, pH 7, P. aeruginosa IPM-8, nutrient agar pH7, 32° C., 18 hours, read-out: MIC): 6300 ng/mL (≈ 10800 nM)
MIC ([12]; IPM9, pH 7, P. aeruginosa IPM-9, nutrient agar pH7, 32° C., 18 hours, read-out: MIC): 1600 ng/mL (≈ 2730 nM)
MIC [13]: 3100 ng/mL (≈ 5290 nM)
MIC [14]: > 100000 ng/mL
MIC [15]: > 100000 ng/mL
MIC ([16]; IFO3849, pH 7, P. mirabilis IFO 3849, nutrient agar pH7, 32° C., 18 hours, read-out: MIC): 25000 ng/mL (≈ 42700 nM)
MIC ([17]; IPM14, pH 7, P. rettgeri IPM-14, nutrient agar pH7, 32° C., 18 hours, read-out: MIC): 12500 ng/mL (≈ 21300 nM)
MIC ([18]; IPM13, pH 7, P. vulgaris IPM-13, nutrient agar pH7, 32° C., 18 hours, read-out: MIC): 6300 ng/mL (≈ 10800 nM)
MIC [19]: 3100 ng/mL (≈ 5290 nM)
MIC [20]: 100000 ng/mL (≈ 171000 nM)
MIC ([21]; S. aureus smith, two-fold serial dilution, nutrient agar pH7, 32° C., 18 hours, read-out: MIC): 1600 ng/mL (≈ 2730 nM)
MIC ([22]; Staphylococcus epidermidis, 111230, pH 7, S. epidermidis 11-1230, nutrient agar pH7, 32° C., 18 hours, read-out: MIC): 25000 ng/mL (≈ 42700 nM)
MIC ([23]; IPM15, pH 7, S. marcescens IPM-15, nutrient agar pH7, 32° C., 18 hours, read-out: MIC): 12500 ng/mL (≈ 21300 nM)
MIC [24]: 100000 ng/mL (≈ 171000 nM)
MIC [25]: > 100000 ng/mL
MIC [26]: > 100000 ng/mL
